These results are taken from article PMC4695185, “Semi-synthetic ocotillol analogues as selective ABCB1-mediated drug resistance reversal agents” (Oncotarget, 2015).

One data set concerns HEK293. Briefly: cells. Also on record: species or system HEK293 and transfected HEK293; MTT cytotoxicity, absorbance 570 nm, 72 h. Conditions: Homo sapiens, HEK293, 72 h, drug alone. As to the method:
(§1) The MTT colorimetric assay was used to detect the sensitivity of the cells against anticancer drugs. Cells (5 × 10^3/well) were seeded evenly into (160 μl/well) 96-well plates and cultured overnight. For the reversal experiments, ORA, OSA, and parallel control modulators (20 μl/well) were added 1 h prior. Different concentrations of the chemotherapeutic drugs (20 μl/well) were then added into the designated wells. After 72 h of incubation, 20 μl of MTT solution (4 mg/ml) was added to each well, and the plate was further incubated for 4 h. Subsequently, the medium was discarded, and 100 μl of dimethylsulfoxide (DMSO) was added into each well to dissolve the formazan crystals. The absorbance was determined at 570 nm by the OPSYS microplate reader (DYNEX Technology, Inc., Chantilly, VA). The IC50 value was calculated from the survival curves using the modified Bliss method. Verapamil was used at a nontoxic concentration of 3 μM as a positive control for ABCB1 overexpressing cell lines. FTC at 3 μM and PAK-104P at 10 μM were used as positive control for ABCG2 and ABCC1 overexpressing cell lines, respectively.

For the next data set, the system named is T1, HEK/ABCG2.
T1 construct: HEK293 transfected with ABCG2 (wild type)
The data set can be described thus: cells. Also on record: species or system HEK293 and transfected HEK293; MTT cytotoxicity, absorbance 570 nm, 72 h. Particulars: Homo sapiens, HEK293, 72 h; drug alone; read-out: IC50 HEK/ABCG2 (mitoxantrone). On the procedure:
as §1

Data set [1] concerns the target T2, ABCB1 (Homo sapiens, UniProt P08183). The data set can be described thus: biochemical. On the set-up: full length ABCB1 (HEK/ABCB1); crude membranes of High-five cells expressing ABCB1.
Data set [2] addresses T2, ABCB1. Briefly: cell-based. Also on record: crude membranes of High-five cells expressing ABCB1. Particulars: read-out: vanadate-sensitive ATPase stimulation in crude membranes (weak: maximal 1.78-fol).
For a further data set, the system named is T3, HEK/ABCB1.
T3 construct: HEK293 transfected with ABCB1
The data set can be described thus: cells. On the set-up: species or system HEK293 and transfected HEK293; MTT cytotoxicity, absorbance 570 nm, 72 h. Conditions: Homo sapiens, HEK293, 72 h; drug alone; read-out: IC50 HEK/ABCB1 (paclitaxel). As to the method:
as §1

Data set [3] has as its target T2, ABCB1.

Read-outs that look alike come from different tables or passages of the source.

T2 sequence (P08183 whole entry): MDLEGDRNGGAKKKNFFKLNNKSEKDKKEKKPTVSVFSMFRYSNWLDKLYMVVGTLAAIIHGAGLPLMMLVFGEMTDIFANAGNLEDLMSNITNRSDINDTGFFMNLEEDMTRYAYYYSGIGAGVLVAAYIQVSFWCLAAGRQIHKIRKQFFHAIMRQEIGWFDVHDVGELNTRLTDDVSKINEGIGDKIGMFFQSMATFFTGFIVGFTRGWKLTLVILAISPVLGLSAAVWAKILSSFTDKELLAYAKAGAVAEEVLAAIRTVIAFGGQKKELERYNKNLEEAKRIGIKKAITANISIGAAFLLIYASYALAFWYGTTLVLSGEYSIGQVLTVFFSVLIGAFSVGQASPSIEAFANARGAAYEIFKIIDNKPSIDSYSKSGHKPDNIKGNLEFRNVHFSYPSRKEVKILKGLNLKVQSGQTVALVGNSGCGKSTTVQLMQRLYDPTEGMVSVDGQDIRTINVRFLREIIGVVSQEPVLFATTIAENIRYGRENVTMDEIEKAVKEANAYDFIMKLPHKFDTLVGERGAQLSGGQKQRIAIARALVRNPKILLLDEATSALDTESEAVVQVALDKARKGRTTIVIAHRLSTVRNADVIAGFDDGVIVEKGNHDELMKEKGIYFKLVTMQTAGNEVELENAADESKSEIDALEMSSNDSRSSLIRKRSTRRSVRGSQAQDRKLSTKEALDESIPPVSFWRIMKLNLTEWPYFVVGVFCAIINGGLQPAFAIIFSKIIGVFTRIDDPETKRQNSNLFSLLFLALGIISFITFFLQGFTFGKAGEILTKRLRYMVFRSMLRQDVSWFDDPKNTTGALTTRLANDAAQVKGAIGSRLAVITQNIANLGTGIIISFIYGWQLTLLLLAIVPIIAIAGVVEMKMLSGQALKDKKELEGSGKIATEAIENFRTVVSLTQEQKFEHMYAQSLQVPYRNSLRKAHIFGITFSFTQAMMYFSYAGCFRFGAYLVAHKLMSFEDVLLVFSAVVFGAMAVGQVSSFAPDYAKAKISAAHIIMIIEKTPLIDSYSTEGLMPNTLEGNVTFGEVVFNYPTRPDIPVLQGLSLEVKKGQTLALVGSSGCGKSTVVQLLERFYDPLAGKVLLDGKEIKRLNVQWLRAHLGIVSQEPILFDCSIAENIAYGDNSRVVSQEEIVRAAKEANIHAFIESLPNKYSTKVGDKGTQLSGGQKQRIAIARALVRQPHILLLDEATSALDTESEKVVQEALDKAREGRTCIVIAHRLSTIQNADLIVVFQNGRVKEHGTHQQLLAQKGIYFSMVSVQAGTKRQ

`O=C1c2c(O)ccc(O)c2C(=O)c2c(NCCNCCO)ccc(NCCNCCO)c21` [Mitoxantrone]: the values for the IC50 with HEK293 (read-out: IC50 HEK293 (mitoxantrone)) and in the data set with HEK/ABCG2 were 0.04 µM and 0.92 µM, respectively.
Broadly, the EC50 is the concentration needed to bring the measured effect to its halfway point. Low values mean greater potency, high ones weaker potency. The compound `CC(C)(O)[C@H]1CC[C@@](C)([C@H]2CC[C@]3(C)[C@@H]2[C@H](O)C[C@@H]2[C@@]4(C)CC[C@H](N)C(C)(C)[C@@H]4CC[C@]23C)O1` [ORA, (20S, 24R/S)-epoxy-12β, 25-dihydroxy-dommarane-3β-amine] registered an EC50 at ABCB1 [1] of 2.08 µM.
For `CC(C)(O)[C@@H]1CC[C@@](C)([C@H]2CC[C@]3(C)[C@@H]2[C@H](O)C[C@@H]2[C@@]4(C)CC[C@H](N)C(C)(C)[C@@H]4CC[C@]23C)O1` [OSA, (20S, 24R/S)-epoxy-12β, 25-dihydroxy-dommarane-3β-amine], the maximal fold induction at ABCB1 [2] stood at 1.78.
Regarding `CC(=O)O[C@H]1C(=O)[C@@]2(C)[C@H]([C@H](OC(=O)c3ccccc3)[C@]3(O)C[C@H](OC(=O)[C@H](O)[C@@H](NC(=O)c4ccccc4)c4ccccc4)C(C)=C1C3(C)C)[C@]1(OC(C)=O)CO[C@@H]1C[C@@H]2O` [paclitaxel], the IC50 stood at 0.18 µM in the data set with HEK293 (read-out: IC50 HEK293 (paclitaxel)) and 8.2 µM with HEK/ABCB1. In addition, at ABCB1 [3], the “radiolabelled efflux and accumulation in ABCB1-overexpressing versus parental ce” value was “decreased much faster over time than those in the parental cells, suggesting an active process of drug efflux mediated by ABCB1”.
